Measurements published in patent US20010044457A1, “Cancer Treatment” (priority 2000, published 2001).

System: pancreatic (MiaPaCa) cancer
Test: in vivo pancreatic (MiaPaCa) cancer nude mouse tumor model
Experimental: The control is PEG. Both the control and the active are given once a week to the end. The doses were 500 mg/kg, 750 mg/kg and 1000 mg/kg. The surviving animals average tumor weight in mg is: […]

Compound: COc1ccc(C=Nn2cc(-c3ccccc3)nc2N)cc1 [2-Amino-1-(4-methoxybenzyliden)amino-4-phenylimidazole]
- Deaths (500 mg/kg once a week, Day 1): 0
- Tumor Weight (surviving animals average) (500 mg/kg once a week, Day 1): 77 mg
- Deaths (500 mg/kg once a week, Day 5): 0
- Tumor Weight (surviving animals average) (500 mg/kg once a week, Day 5): 161 mg
- Deaths (500 mg/kg once a week, Day 9): 0
- Tumor Weight (surviving animals average) (500 mg/kg once a week, Day 9): 322 mg
- Deaths (500 mg/kg once a week, Day 12): 0
- Tumor Weight (surviving animals average) (500 mg/kg once a week, Day 12): 271 mg
- Deaths (500 mg/kg once a week, Day 16): 0
- Tumor Weight (surviving animals average) (500 mg/kg once a week, Day 16): 596 mg
- Deaths (500 mg/kg once a week, Day 19): 0
- Tumor Weight (surviving animals average) (500 mg/kg once a week, Day 19): 640 mg
- Deaths (500 mg/kg once a week, Day 23): 0
- Tumor Weight (surviving animals average) (500 mg/kg once a week, Day 23): 638 mg
- Deaths (500 mg/kg once a week, Day 26): 0
- Tumor Weight (surviving animals average) (500 mg/kg once a week, Day 26): 532 mg
- efficacy in tumor model (500 mg/kg, 750 mg/kg and 1000 mg/kg once a week, control PEG): dose responsive efficacy
- Deaths (750 mg/kg once a week, Day 1): 0
- Tumor Weight (surviving animals average) (750 mg/kg once a week, Day 1): 76 mg
- Deaths (750 mg/kg once a week, Day 5): 0
- Tumor Weight (surviving animals average) (750 mg/kg once a week, Day 5): 117 mg
- Deaths (750 mg/kg once a week, Day 9): 0
- Tumor Weight (surviving animals average) (750 mg/kg once a week, Day 9): 290 mg
- Deaths (750 mg/kg once a week, Day 12): 0
- Tumor Weight (surviving animals average) (750 mg/kg once a week, Day 12): 281 mg
- Deaths (750 mg/kg once a week, Day 16): 0
- Tumor Weight (surviving animals average) (750 mg/kg once a week, Day 16): 369 mg
- Deaths (750 mg/kg once a week, Day 19): 0
- Tumor Weight (surviving animals average) (750 mg/kg once a week, Day 19): 364 mg
- Deaths (750 mg/kg once a week, Day 23): 0
- Tumor Weight (surviving animals average) (750 mg/kg once a week, Day 23): 420 mg
- Deaths (750 mg/kg once a week, Day 26): 0
- Tumor Weight (surviving animals average) (750 mg/kg once a week, Day 26): 418 mg
- Deaths (1000 mg/kg once a week, Day 1): 0
- Tumor Weight (surviving animals average) (1000 mg/kg once a week, Day 1): 90 mg
- Deaths (1000 mg/kg once a week, Day 5): 0
- Tumor Weight (surviving animals average) (1000 mg/kg once a week, Day 5): 90 mg
- Deaths (1000 mg/kg once a week, Day 9): 0
- Tumor Weight (surviving animals average) (1000 mg/kg once a week, Day 9): 150 mg
- Deaths (1000 mg/kg once a week, Day 12): 0
- Tumor Weight (surviving animals average) (1000 mg/kg once a week, Day 12): 130 mg
- Deaths (1000 mg/kg once a week, Day 16): 0
- Tumor Weight (surviving animals average) (1000 mg/kg once a week, Day 16): 120 mg
- Deaths (1000 mg/kg once a week, Day 19): 1
- Tumor Weight (surviving animals average) (1000 mg/kg once a week, Day 19): 110 mg
- Deaths (1000 mg/kg once a week, Day 23): 0
- Tumor Weight (surviving animals average) (1000 mg/kg once a week, Day 23): 198 mg
- Deaths (1000 mg/kg once a week, Day 26): 0
- Tumor Weight (surviving animals average) (1000 mg/kg once a week, Day 26): 192 mg
